Data taken from ChEMBL document CHEMBL4706474, “Tetrahydro-2-naphthyl and 2-Indanyl Triazolopyrimidines Targeting Plasmodium falciparum Dihydroorotate Dehydrogenase Display Potent and Selective Antimalarial Activity” (J Med Chem, 2016).

Tests used:
[1] = AUC (0 to infinity) in Sprague-Dawley rat at […], iv administered as infusion for 10 mins by LC-MS analysis; type: ADME, organism-based; set-up: route intravenous, time 10 min, dose 1.6 mg/kg; conditions: in vivo
[2] = Cmax in Sprague-Dawley rat at 17.5 mg/kg, po measured over 24 hrs by LC-MS analysis; type: ADME, organism-based; set-up: route oral, dose 17.5 mg/kg, time >24; conditions: in vivo
[3] = biological target: Voltage-gated inwardly rectifying potassium channel KCNH2 (Homo sapiens, UniProt Q12809)
Description: Inhibition of human ERG by patch clamp electrophysiology assay

[4] = AUC (0 to infinity) in Sprague-Dawley rat at 21.3 mg/kg, po measured over 24 hrs by LC-MS analysis; type: ADME, organism-based; set-up: route oral, dose 21.3 mg/kg, time >24; conditions: in vivo

Sequence of Voltage-gated inwardly rectifying potassium channel KCNH2 (Q12809 whole entry): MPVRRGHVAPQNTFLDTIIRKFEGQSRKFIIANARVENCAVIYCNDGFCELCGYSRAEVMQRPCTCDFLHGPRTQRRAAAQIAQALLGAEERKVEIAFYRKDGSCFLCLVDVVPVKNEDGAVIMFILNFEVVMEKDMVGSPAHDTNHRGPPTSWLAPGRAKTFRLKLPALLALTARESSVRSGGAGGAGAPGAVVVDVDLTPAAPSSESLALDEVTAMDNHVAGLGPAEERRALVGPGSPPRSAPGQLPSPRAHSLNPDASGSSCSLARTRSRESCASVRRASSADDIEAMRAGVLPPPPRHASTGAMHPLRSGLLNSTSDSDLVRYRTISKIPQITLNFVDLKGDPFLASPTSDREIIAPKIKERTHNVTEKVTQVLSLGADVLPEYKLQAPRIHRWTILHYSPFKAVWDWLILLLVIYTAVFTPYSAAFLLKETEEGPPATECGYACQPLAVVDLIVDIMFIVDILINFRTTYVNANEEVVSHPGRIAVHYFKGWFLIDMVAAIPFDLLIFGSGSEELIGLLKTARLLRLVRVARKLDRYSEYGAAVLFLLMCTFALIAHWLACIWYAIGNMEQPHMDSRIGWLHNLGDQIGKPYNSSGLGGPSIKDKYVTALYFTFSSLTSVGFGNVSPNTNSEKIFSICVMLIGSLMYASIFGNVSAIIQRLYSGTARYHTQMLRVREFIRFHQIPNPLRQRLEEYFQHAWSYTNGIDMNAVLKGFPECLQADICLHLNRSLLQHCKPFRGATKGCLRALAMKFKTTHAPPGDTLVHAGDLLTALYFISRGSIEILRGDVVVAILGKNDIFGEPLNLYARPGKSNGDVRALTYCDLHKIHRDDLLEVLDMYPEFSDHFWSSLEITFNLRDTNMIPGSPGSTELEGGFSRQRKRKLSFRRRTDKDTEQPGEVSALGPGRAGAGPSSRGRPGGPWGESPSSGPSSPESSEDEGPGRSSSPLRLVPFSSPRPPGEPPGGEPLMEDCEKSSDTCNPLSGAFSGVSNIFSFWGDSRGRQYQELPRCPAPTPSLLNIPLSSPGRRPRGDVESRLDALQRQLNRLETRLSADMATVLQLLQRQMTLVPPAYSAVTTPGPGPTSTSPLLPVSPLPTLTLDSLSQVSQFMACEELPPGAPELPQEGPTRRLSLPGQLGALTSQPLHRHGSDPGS

With `Cc1cc(N[C@H]2CCc3ccc(Cl)cc3C2)n2nc(C(C)(F)F)nc2n1` the AUC [1] was 3.5 µM·h, the Cmax [2] was 3.3 µM and the IC50 [3] was 1500 nM.

Work on `Cc1cc(NC2Cc3cc(F)c(F)cc3C2)n2nc(C(C)(F)F)nc2n1` yielded an AUC(0-inf) [4] of 202 µM·h.
